Results from publication PMC9389804 (Journal of Hematology & Oncology, 2022).
“And” between values parts separate entries of the source, which are not always exact repeats. Equal entries are not always repeated.

Assay: safety assessments (adverse events, NCI CTCAE)
Settings: for Treatment-related cardiovascular events: any grade
[1] = median follow-up of nearly 3 years
[2] = nonhematologic TRAE, all 165 patients
[3] = treatment-related CVE G 3/4, Accelerated phase n=38
[4] = treatment-related CVE G 3/4, Chronic phase n=127
[5] = treatment-related CVE G 3/4, Total n=165
[6] = treatment-related CVE any grade, Accelerated phase n=38
[7] = treatment-related CVE any grade, Chronic phase n=127
[8] = treatment-related CVE any grade, Total n=165

Protocol: Adverse events were assessed continuously and graded according to NCI CTCAE v5.0.18. Complete blood count with differential, serum chemistries, and physical examinations were performed before the study; weekly during Cycles 1 and 2; on alternate weeks in Cycles 3 and 4; and monthly thereafter.

Cc1ccc(C(=O)Nc2ccc(CN3CCN(C)CC3)c(C(F)(F)F)c2)cc1C#Cc1cnc2[nH]ncc2c1 [olverembatinib]
Hematologic (TRAE any grades, Total n=165): 138 (83.6) n (%)
Hyperbilirubinemia (TRAE any grades, Total n=165): 69 (41.8) n (%)
Hyperglycemia (TRAE any grades, Total n=165): 43 (26.1) n (%)
Hypertriglyceridemia (TRAE any grades, Total n=165): 95 (57.6) n (%)
Hypoalbuminemia (TRAE any grades, Total n=165): 26 (15.8) n (%)
Hypocalcemia (TRAE any grades, Total n=165): 64 (38.8) n (%)
Hypokalemia (TRAE any grades, Total n=165): 42 (25.5) n (%)
Hyponatremia (TRAE any grades, Total n=165): 38 (23.0) n (%)
Increased alanine aminotransferase (TRAE any grades, Total n=165): 59 (35.8) n (%)
Increased alkaline phosphatase (TRAE any grades, Total n=165): 21 (12.7) n (%)
Increased aspartate aminotransferase (TRAE any grades, Total n=165): 59 (35.8) n (%)
Increased creatine phosphokinase (TRAE any grades, Total n=165): 48 (29.1) n (%)
Increased γ-glutamyl transferase (TRAE any grades, Total n=165): 47 (28.5) n (%)
Leukopenia (TRAE any grades, Total n=165): 56 (33.9) n (%)
Myalgia (TRAE any grades, Total n=165): 31 (18.8) n (%)
Neutropenia (TRAE any grades, Total n=165): 26 (15.8) n (%)
Nonhematologic (TRAE any grades, Total n=165): 165 (100.0) n (%)
Pain in extremity (TRAE any grades, Total n=165): 21 (12.7) n (%)
Proteinuria (TRAE any grades, Total n=165): 84 (50.9) n (%)
Pyrexia (TRAE any grades, Total n=165): 30 (18.2) n (%)
Rash (TRAE any grades, Total n=165): 27 (16.4) n (%)
Sinus tachycardia (TRAE any grades, Total n=165): 30 (18.2) n (%)
Skin pigmentation (TRAE any grades, Total n=165): 139 (84.2%) n (%) and 139 (84.2) n (%)
Thrombocytopenia (TRAE any grades, Total n=165): 126 (76.4) n (%)
Treatment-related adverse events (TRAE any grades, Total n=165): 165 (100.0) n (%)
Adverse events resulting in dose interruption (Total n=165): 86 (52.1%) n (%) and 86 (52.1) n (%)
Adverse events resulting in dose reduction (Total n=165): 50 (30.3%) n (%) and 50 (30.3) n (%)
Adverse events resulting in treatment discontinuation (Total n=165): 13 (7.9) n (%)
severe thrombocytopenia leading to dose reduction (all 165 patients): 15.8%
Treatment-related cardiovascular events (Accelerated phase n=38): 9 (23.7) n (%)
Treatment-related cardiovascular events (Chronic phase n=127): 44 (34.6) n (%)
Treatment-related cardiovascular events (Total n=165): 53 (32.1%) n (%) and 53 (32.1) n (%)
median time to temporary treatment suspension or dose reduction (for SAEs): 5 months
patients requiring temporary treatment suspension or dose reduction (for SAEs): 75 (46.0%) n (%)
myelosuppression, median duration (in vivo): 36 (7–718) days
myelosuppression, median onset time (in vivo): 28 (4–676) days
patients in whom CVEs were grade 1 or 2 (in vivo): 88.5%
patients who received platelet transfusions (in vivo): 11.5%
patients who received red blood cell transfusions (in vivo): 9.7%
median duration of treatment interruptions (interruptions due to AEs): 56 days
median number of treatment interruptions (interruptions due to AEs): 2
incidence of arterial occlusive and venous thrombotic events [1]: 5.0%
olverembatinib-related CVEs [1]: 32.0%
median time to onset of nonhematologic TRAEs (most frequent nonhematologic TRAEs): 70 days
Hyperbilirubinemia [2]: 41.8%
Hypertriglyceridemia [2]: 57.6%
Hypocalcemia [2]: 38.8%
Proteinuria [2]: 50.9%
elevated liver transaminases [2]: 35.8%
patients with Fridericia-corrected QT interval exceeding 500 ms on treatment (patients with CVEs): None
renal function according to estimated glomerular filtration rate (patients with persistent proteinuria): did not observe decreased renal function
Anemia (serious AE (SAE)): 6.0%
Atrial fibrillation (serious AE (SAE)): 2.0%
Pneumonia (serious AE (SAE)): 3.0%
Pyrexia (serious AE (SAE)): 2.0%
Thrombocytopenia (serious AE (SAE)): 9.0%
acute MI, cholelithiasis, pericardial effusion, upper-respiratory-tract infection, and urinary-tract infection (each) (serious AE (SAE)): 1%
Acute coronary syndrome [3]: 0 n (%)
Acute myocardial infarction [3]: 0 n (%)
Angina pectoris [3]: 0 n (%)
Arrhythmia [3]: 0 n (%)
Arteriosclerosis coronary artery [3]: 0 n (%)
Atrial fibrillation [3]: 1 (2.6) n (%)
Atrial tachycardia [3]: 0 n (%)
Cardiomegaly [3]: 0 n (%)
Cerebral infarction [3]: 0 n (%)
Lacunar infarction [3]: 0 n (%)
Palpitations [3]: 0 n (%)
Pericardial effusion [3]: 1 (2.6) n (%)
Retinal-vein occlusion [3]: 0 n (%)
Supraventricular extrasystoles [3]: 0 n (%)
Ventricular extrasystoles [3]: 0 n (%)
Acute coronary syndrome [4]: 1 (0.8) n (%)
Acute myocardial infarction [4]: 1 (0.8) n (%)
Angina pectoris [4]: 0 n (%)
Arrhythmia [4]: 1 (0.8) n (%)
Arteriosclerosis coronary artery [4]: 1 (0.8) n (%)
Atrial fibrillation [4]: 1 (0.8) n (%)
Atrial tachycardia [4]: 0 n (%)
Cardiomegaly [4]: 0 n (%)
Cerebral infarction [4]: 1 (0.8) n (%)
Lacunar infarction [4]: 1 (0.8) n (%)
Palpitations [4]: 0 n (%)
Pericardial effusion [4]: 1 (0.8) n (%)
Retinal-vein occlusion [4]: 2 (1.6) n (%)
Supraventricular extrasystoles [4]: 0 n (%)
Ventricular extrasystoles [4]: 0 n (%)
Acute coronary syndrome [5]: 1 (0.6) n (%)
Acute myocardial infarction [5]: 1 (0.6) n (%)
Angina pectoris [5]: 0 n (%)
Arrhythmia [5]: 1 (0.6) n (%)
Arteriosclerosis coronary artery [5]: 1 (0.6) n (%)
Atrial fibrillation [5]: 2 (1.2) n (%)
Atrial tachycardia [5]: 0 n (%)
Cardiomegaly [5]: 0 n (%)
Cerebral infarction [5]: 1 (0.6) n (%)
Lacunar infarction [5]: 1 (0.6) n (%)
Palpitations [5]: 0 n (%)
Pericardial effusion [5]: 2 (1.2) n (%)
Retinal-vein occlusion [5]: 2 (1.2) n (%)
Supraventricular extrasystoles [5]: 0 n (%)
Ventricular extrasystoles [5]: 0 n (%)
Acute coronary syndrome [6]: 0 n (%)
Acute myocardial infarction [6]: 0 n (%)
Angina pectoris [6]: 0 n (%)
Arrhythmia [6]: 0 n (%)
Arteriosclerosis coronary artery [6]: 0 n (%)
Atrial fibrillation [6]: 3 (7.9) n (%)
Atrial tachycardia [6]: 0 n (%)
Cardiomegaly [6]: 0 n (%)
Cerebral infarction [6]: 0 n (%)
Lacunar infarction [6]: 0 n (%)
Palpitations [6]: 1 (2.6) n (%)
Pericardial effusion [6]: 3 (7.9) n (%)
Retinal-vein occlusion [6]: 0 n (%)
Supraventricular extrasystoles [6]: 2 (5.3) n (%)
Ventricular extrasystoles [6]: 0 n (%)
Acute coronary syndrome [7]: 1 (0.8) n (%)
Acute myocardial infarction [7]: 1 (0.8) n (%)
Angina pectoris [7]: 1 (0.8) n (%)
Arrhythmia [7]: 1 (0.8) n (%)
Arteriosclerosis coronary artery [7]: 1 (0.8) n (%)
Atrial fibrillation [7]: 2 (1.6) n (%)
Atrial tachycardia [7]: 1 (0.8) n (%)
Cardiomegaly [7]: 1 (0.8) n (%)
Cerebral infarction [7]: 1 (0.8) n (%)
Lacunar infarction [7]: 1 (0.8) n (%)
Palpitations [7]: 1 (0.8) n (%)
Pericardial effusion [7]: 11 (8.7) n (%)
Retinal-vein occlusion [7]: 3 (2.4) n (%)
Supraventricular extrasystoles [7]: 3 (2.4) n (%)
Ventricular extrasystoles [7]: 7 (5.5) n (%)
Acute coronary syndrome [8]: 1 (0.6) n (%)
Acute myocardial infarction [8]: 1 (0.6) n (%)
Angina pectoris [8]: 1 (0.6) n (%)
Arrhythmia [8]: 1 (0.6) n (%)
Arteriosclerosis coronary artery [8]: 1 (0.6) n (%)
Atrial fibrillation [8]: 5 (3.0) n (%)
Atrial tachycardia [8]: 1 (0.6) n (%)
Cardiomegaly [8]: 1 (0.6) n (%)
Cerebral infarction [8]: 1 (0.6) n (%)
Lacunar infarction [8]: 1 (0.6) n (%)
Palpitations [8]: 2 (1.2) n (%)
Pericardial effusion [8]: 14 (8.5) n (%)
Retinal-vein occlusion [8]: 3 (1.8) n (%)
Supraventricular extrasystoles [8]: 5 (3.0) n (%)
Ventricular extrasystoles [8]: 7 (4.2) n (%)
